Earlier results on one molecule are cited in publication PMC6108082 (Journal of medicinal chemistry, 2018).

The series relates to P-glycoprotein.

Molecules are shown by their SMILES.

Consider `CCCc1ccc(-c2ccc(N(C[C@@H](N)[C@@H](C)CC)C(=O)[C@@H]3C[C@H]3c3ccccn3)cc2)cc1.Cl` [compound 1, 2-PCCA], for which the P-glycoprotein substrate activity entry was “substrate of P-glycoprotein”.
